Results published in ChEMBL document CHEMBL5579840, “Optimization of diastereomeric dihydropyridines as antimalarials” (Eur J Med Chem, 2024).

Assays:
[1] = system: Plasmodium falciparum; assay: Antimalarial activity against chloroquine-sensitive Plasmodium falciparum 3D7 infected in erythroctes incubated for 72 hrs by SYBR green 1 based spectrofluorometer; assay type: functional, organism-based, Erythrocyte; settings: erythrocyte
[2] = system: Plasmodium falciparum; assay: Antimalarial activity against chloroquine-resistant Plasmodium falciparum K1 infected in erythroctes incubated for 72 hrs by SYBR green 1 based spectrofluorometer; assay type: functional, organism-based, Erythrocyte; settings: erythrocyte

| Structure (SMILES) | EC50 [1] [nM] | EC50 [2] [nM] |
| --- | --- | --- |
| CCCC1=C(C(=O)OCC)C(c2ccc(Cl)cc2C)C2=C(CC(c3ccc(OC)c(OC)c3)CC2=O)N1 (mixture of isomers) | 13.5 | 24.1 |
| CCCC1=C(C(=O)OCC)C(c2ccc(Cl)cc2C)C2=C(CC(c3ccc(OC)c(OC)c3)OC2=O)N1 (mixture of isomers) | 30 | 22 |
| CCOC(=O)C1=C(C)NC2=C(C(=O)OC(c3ccc(OC)c(OC)c3)C2)C1c1ccccc1OC (stereo in doubt; 9B) | 2050 | > 5500 |
| CCOC(=O)C1=C(C)NC2=C(C(=O)OC(c3ccc(C)cc3)C2)C1c1ccccc1Cl (stereo in doubt; 23B) | > 6000 | 1580 |
| CCOC(=O)C1=C(C)NC2=C(C(=O)OC(c3cccc(C)c3)C2)C1c1ccccc1Cl (stereo in doubt; 22B) | > 6000 | > 6000 |
| CCCC1=C(C(=O)OCC)C(c2ccc(Cl)cc2C)C2=C(CC(c3cc(OC)ccc3OC)CC2=O)N1 (stereo in doubt; 48B) | 37.5 | 46.8 |
| CCCC1=C(C(=O)OCC)C(c2ccc(Cl)cc2C)C2=C(CC(c3ccc(Cl)c(OC)c3)CC2=O)N1 (mixture of isomers) | 27.9 | 48.9 |
| CCOC(=O)C1=C(c2ccccc2)NC2=C(C(=O)CC(c3ccc(OC)c(OC)c3)C2)C1c1ccccc1Cl (stereo in doubt; 35B) | 40.5 | 46.7 |
| CCOC(=O)C1=C(C)NC2=C(C(=O)OC(c3ccc(Cl)c(OC)c3)C2)C1c1ccccc1Cl (mixture of isomers) | 595 | 345 |
| CCOC(=O)C1=C(C)NC2=C(C(=O)OC(c3ccc(OC)c(OC)c3)C2)C1c1ccccc1 (mixture of isomers) | 180 | 120 |
| CCOC(=O)C1=C(C)NC2=C(C(=O)OC(c3ccc(OC)c(OC)c3)C2)C1c1ccc([N+](=O)[O-])cc1 (stereo in doubt; 13B) | 2710 | 2200 |
| COC(=O)C1=C(C)NC2=C(C(=O)OC(c3ccc(OC)c(OC)c3)C2)C1c1ccccc1Cl (stereo in doubt; 28B) | 798 | 417 |
| CCCOC(=O)C1=C(C)NC2=C(C(=O)OC(c3ccc(OC)c(OC)c3)C2)C1c1ccccc1Cl (stereo in doubt; 29B) | 458 | 332 |
| CCOC(=O)C1=C(C)NC2=C(C(=O)CC(c3ccc(OC)c(OC)c3)C2)C1c1ccccc1Cl (stereo in doubt; 2B) | 13.5 | 15.7 |
| CCOC(=O)C1=C(C)NC2=C(C(=O)CC(c3ccc(Cl)c(OC)c3)C2)C1c1ccccc1Cl (mixture of isomers) | 47.7 | 51.2 |
| CCOC(=O)C1=C(C(=O)OCC)C(c2ccccc2Cl)C2=C(CC(c3ccc(OC)c(OC)c3)OC2=O)N1 (mixture of isomers) | 58.7 | 22.2 |
| CCCC1=C(C(=O)OCC)C(c2ccccc2Cl)C2=C(CC(c3ccc(OC)c(OC)c3)OC2=O)N1 (mixture of isomers) | 29 | 15.5 |
| CCOC(=O)C1=C(C)NC2=C(C(=O)CC(c3ccc(OC)c(OC)c3)C2)C1c1ccc(Cl)cc1C (mixture of isomers) | 55.1 | 38.5 |
| CCCC1=C(C(=O)OCC)C(c2ccc(Cl)cc2C)C2=C(CC(c3cc(OC)ccc3OC)CC2=O)N1 (mixture of isomers) | 55.1 | 44.4 |
| CCCC1=C(C(=O)OCC)C(c2ccccc2Cl)C2=C(CC(c3ccc(OC)c(OC)c3)CC2=O)N1 (mixture of isomers) | 2.3 | 3.8 |
| CCOC(=O)C1=C(c2ccccc2)NC2=C(C(=O)CC(c3ccc(OC)c(OC)c3)C2)C1c1ccccc1Cl (mixture of isomers) | 176 | 92.3 |
| COc1ccc(C2CC3=C(C(=O)O2)C(c2ccccc2Cl)C(C(=O)OCc2ccccc2)=C(C)N3)cc1OC (stereo in doubt; 31B) | > 9100 | > 9100 |
| CCOC(=O)C1=C(C)NC2=C(C(=O)OC(c3ccc(OC)c(OC)c3)C2)C1c1ccccc1C (mixture of isomers) | 72.7 | 123 |
| COc1ccc(C2CC3=C(C(=O)O2)C(c2ccccc2Cl)C(C(=O)OC(C)(C)C)=C(C)N3)cc1OC (mixture of isomers) | – | 2650 |
| CCOC(=O)C1=C(C)NC2=C(C(=O)OC(c3ccccc3Cl)C2)C1c1ccccc1Cl (mixture of isomers) | > 6000 | > 6000 |
| CCOC(=O)C1=C(C)NC2=C(C(=O)OC(c3ccc(OC)c(OC)c3)C2)C1c1ccc(Cl)cc1C (mixture of isomers) | 19.5 | 46.8 |
| CCOC(=O)C1=C(C)NC2=C(C(=O)CC(c3ccc(OC)c(OC)c3)C2)C1c1ccc(Cl)cc1 (mixture of isomers) | 16.3 | 18.9 |
| CCOC(=O)C1=C(C)NC2=C(C(=O)OC(c3ccc(OC)c(OC)c3)C2)C1c1ccc(C)cc1 (stereo in doubt; 8B) | 638 | 605 |
| COc1ccc(C2CC(=O)C3=C(C2)NC(C)=C(C(=O)O)C3c2ccccc2Cl)cc1OC (stereo in doubt; 27B) | > 12000 | – |
